# From patent US6537770B1, “Assay for detecting phospho-N-acetylmuramyl-pentapeptide translocase activity” (priority 1999, dated 2003)
# Experiments:
# [1] = biological target: T1, translocase enzyme (Escherichia coli membranes) (Escherichia coli, UniProt P0A6W3); experiment: reversal of the translocase reaction (Lipid I back to the water soluble precursor) on addition of UMP; assay type: biochemical; settings: 1 μM UMP added after 10 minutes reaction, stopped after about 3-4 minutes
# T1 construct: The membranes are prepared from spheroplast pellets which are commercially available; Each pellet contains a certain amount of E. coli Hfr H; endogenous in cells; host or cells: E. coli Hfr H membranes, prepared from commercially available spheroplast pellets
# From the text: The reaction catalysed by the enzyme translocase is known to be reversible. To show the reversible reaction, the enzyme reaction was continued for 10 mintues to form the radioactive product, undecaprenol-pyrophosphate-[2,3-^3H]propionate-N-acetylmuramylpentapeptide, Lipid I. This is seperated from its organic phase. Once the radioactive product is formed one set of reactions is stopped using the 2:1 pyridinium acetate and n-butanol mixture as described before. In a parallel set of reactions, 1 μM UMP is added. The reaction is then stopped after about 3-4 minutes. The lipid fraction can be extracted from both the sets of reactions. […] This indicates the reversal of Lipid I to the water soluble precursor.
# [2] = biological target: T1, translocase enzyme (Escherichia coli membranes); experiment: phospho-N-acetylmuramyl-pentapeptide translocase assay with 3H-propionated UDP-MPP, butanol extraction and scintillation counting; assay type: biochemical; settings: Tunicamycin at 0.3 μg/ml; FIG. 2
# Description: Eppendorf tubes were individually filled with a total of 40 μl of the reaction mixture each, initially. The reaction mixture consisted of an aqueous buffer solution of 100 mM Tris-HCl (Tris[hydroxymethyl]aminomethane hydrochloride), 25 mM magnesium chloride, 50 Mm of potassium chloride, 0.1% w/v Triton X-100, 8 μM of propionated non-radioactive UDP-MPP, 2 μM of ^3H-propionated UDP-MPP at room temperature, 10 μl of the enzyme at a concentration of 5 μg per ml and 17.5 μl of water. To this a solution of a test compound (e.g. Tunicamycin) of varying concentration is added. […] The reaction commences with the addition of the enzyme.
# The Escherichia coli membranes, which serve as a source of the enzyme, were prepared in the following manner.
# The membranes are prepared from spheroplast pellets which are commercially available. Each pellet contains a certain amount of E. coli Hfr H. The pellet is thawed overnight at 4° C. The pellet is weighed and the figure is multiplied by 7.5. […] The pellet is again resuspended in the same volume of 50 mM Tris-HCl buffer solution of pH 7.5 as calculated in the previous paragraph, containing, 20 μg/ml DNAse, 20 μg/ml RNAse, 1 mM magnesium chloride and 1 mM β-mercapto ethanol. […]
# The product is extracted with saturated n-butanol and washed with 50 μl of water. It is then counted, 25-50 μl at a time on a scintillation counter.
# T1 sequence (P0A6W3 whole entry): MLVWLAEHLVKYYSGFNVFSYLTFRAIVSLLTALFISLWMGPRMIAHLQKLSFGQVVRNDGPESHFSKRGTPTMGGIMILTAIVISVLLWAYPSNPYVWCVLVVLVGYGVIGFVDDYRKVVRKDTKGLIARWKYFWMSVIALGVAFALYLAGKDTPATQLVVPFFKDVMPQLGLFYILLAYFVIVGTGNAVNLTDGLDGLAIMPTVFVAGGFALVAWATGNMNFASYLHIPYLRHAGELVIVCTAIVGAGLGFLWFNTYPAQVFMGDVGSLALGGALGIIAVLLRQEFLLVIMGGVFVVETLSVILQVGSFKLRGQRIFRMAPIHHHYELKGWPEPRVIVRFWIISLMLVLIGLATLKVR
Molecule,radioactive count in the organic phase (Lipid I) [1],"inhibition of translocase (rate, cpm versus time compared with control) [2]"
O=c1ccn([C@@H]2O[C@H](COP(=O)(O)O)[C@@H](O)[C@H]2O)c(=O)[nH]1 [UMP],reduced to basal levels,
Tunicamycin,,antagonist of the translocase enzyme
